Experimental data published in patent US4469692A, “Spiro derivatives of the pyrazolo [1,5-d] [1,2,4] triazine ring system and a process for the preparation thereof” (Alkaloida Vegyeszeti Gyar, priority 1981, dated 1984).
Entries after “also recorded” stand apart in the source; their conditions may differ.

Key:
mice [1] = test: Hypnotic effect in mice (method of Janssen et al.); format: in vivo; conditions: for minimal effective dose / ED50: Mus musculus, iv; for minimal effective dose: 0.05 h, read-out: Hmin (minimal hypnotic dose inducing sleep in all animals for a period exceeding 3 minutes); for minimal effective dose / Mean duration of sleep: i.v.; for ED50: read-out: HD50 (dose inducing sleep in 50 percent of the animals)
Procedure: (§1) The hypnotic activity is measured by the method of Janssen et al. (J. Med. Chem. 8, 220/1965/). Ketalar/2-(2-chlorophenyl)-2-methyl-amino-cyclohexanone/ and Hexobarbital (5-methyl-5-hexenyl-barbituric acid) were applied as reference compounds.

[2] = Acute toxicity (LD50) in mice; conditions: mouse, in vivo, iv
mice [3] = test: Acute toxicity (LD50) in mice; conditions: mice, Tables 1 and 2
rabbits = test: Hypnotic effect in rabbits (method of Janssen et al.); format: in vivo; conditions: for minimal effective dose: Oryctolagus cuniculus, iv, read-out: Hmin; for Mean duration of sleep: i.v., in the case of dose Hmin
Procedure: as §1

[4] = Acute toxicity (LD50) in rats; conditions: rat, in vivo, iv
[5] = Acute toxicity (LD50, lethality) in rabbits; conditions: rabbit, in vivo; for LD50: iv, LD50, rabbits
rats = test: Hypnotic effect in rats (method of Janssen et al.); format: in vivo; conditions: for ED50: Rattus norvegicus, iv, read-out: HD50 (the source's name); for Mean duration of sleep: i.v., in the case of dose HD50
Procedure: as §1

[6] = Postnarcotic period following awakening and adverse effects; format: in vivo; conditions: postnarcotic period following awakening

SMILES	minimal effective dose (mice [1])	ED50 (mice [1])	hypnotic effect compared with Hexobarbital and Ketalar (mice [1]; Tables 1 and 2, listed as compound of the invention)	Mean duration of sleep (mice [1]; in the case of dose HD50)	Mean duration of sleep (mice [1]; in the case of dose Hmin)	LD50 [2]	toxicity compared with reference substances (mice [3])	minimal effective dose (rabbits)	Mean duration of sleep (rabbits)	LD50 [4]	LD50 [5]	ED50 (rats)	therapeutic index compared with reference substances (rats; Table 3)	Mean duration of sleep (rats)	adverse effects of the postnarcotic period [6]	Mean duration of sleep (mice [1]; at a dose of 40 mg/kg)	mortality ([5]; 50 mg/kg)
Cc1cc2n(n1)C1(CCCCC1)N(C)N(C)C2=O [Example 5, Spiro[cyclohexane-1,7'-/6,7-dihydro-2,5,6-trimethylpyrazolo[1,5-d][1,2,4]triazin-4(5H)-one/]]	25 mg/kg	17.5 mg/kg	superior to that of Hexobarbital; also recorded: in the same range as that of Ketalar	2.8 min	6.75 min	192 mg/kg	substantially lower than that of any of the above reference substances	25 mg/kg	6 min	275 mg/kg	~325 mg/kg	16 mg/kg	more advantageous in both instances	1.5 min	devoid of any adverse effects		
CN1C(=O)NC(=O)C(C)(C2=CCCCC2)C1=O (stereo not drawn) [Hexobarbital, 5-methyl-5-hexenyl-barbituric acid]	45 mg/kg	25 mg/kg		4.1 min	7.2 min	118 mg/kg				125 mg/kg		17.5 mg/kg		4.45 min		2.6 min	
CNC1(c2ccccc2Cl)CCCCC1=O (stereo not drawn) [Ketalar, 2-(2-chlorophenyl)-2-methyl-amino-cyclohexanone]	25 mg/kg	14.5 mg/kg		1.7 min	5.0 min	62 mg/kg		25 mg/kg	14 min	39.4 mg/kg	< 50 mg/kg	8 mg/kg		1.9 min			80%
